Assay results taken from ChEMBL document CHEMBL3885881, “DrugMatrix”.

Species on record: Rattus norvegicus
Assay: DrugMatrix - Regimen: Daily Repeat
Type: toxicity, organism-based, Sprague-Dawley
Parameters: regimen Daily Repeat, gender Male, age 6-8 weeks
Conditions: in vivo, po, route oral GAVAGE, vehicle 100 % SALINE; for ABSOLUTE BASOPHIL / ABSOLUTE EOSINOPHIL / ABSOLUTE LYMPHOCYTE / ABSOLUTE MONOCYTE / ABSOLUTE SEGMENTED NEUTROPHIL / BASOPHIL / EOSINOPHIL / ERYTHROCYTE COUNT / HEMATOCRIT / HEMOGLOBIN / LEUKOCYTE COUNT / LYMPHOCYTE / MEAN CORPUSCULAR HEMOGLOBIN / MEAN CORPUSCULAR HEMOGLOBIN CONCENTRATION / MONOCYTE / NEUTROPHIL / NUCLEATED RED BLOOD CELLS / PLATELET COUNT: tissue Blood; for ALANINE AMINOTRANSFERASE / ALBUMIN / ALKALINE PHOSPHATASE / ASPARTATE AMINOTRANSFERASE / BLOOD UREA NITROGEN / CARBON DIOXIDE / CHOLESTEROL / CREATINE PHOSPHOKINASE / CREATININE / GLUCOSE / LACTATE DEHYDROGENASE / LIPASE / POTASSIUM / SODIUM / TOTAL BILIRUBIN / TOTAL PROTEIN / URIC ACID: tissue Plasma
[1] = 330 mg/kg, 120 h, dose level Low, time 5 day
[2] = 980 mg/kg, 72 h, dose level High, time 3 day
[3] = 980 mg/kg, 120 h, dose level High, time 5 day

Nc1nc2c(ncn2COCCO)c(=O)[nH]1 [ACYCLOVIR]
ABSOLUTE BASOPHIL [1]: 0 CELLS/uL
ABSOLUTE EOSINOPHIL [1]: 23.33 CELLS/uL
ABSOLUTE LYMPHOCYTE [1]: 6827.33 CELLS/uL
ABSOLUTE MONOCYTE [1]: 23.33 CELLS/uL
ABSOLUTE SEGMENTED NEUTROPHIL [1]: 459.33 CELLS/uL
BASOPHIL [1]: 0%
EOSINOPHIL [1]: 0.33%
ERYTHROCYTE COUNT [1]: 5.77 x10E6/uL
HEMATOCRIT [1]: 36%
HEMOGLOBIN [1]: 13.93 G/DL
LEUKOCYTE COUNT [1]: 7.33 x10E3/uL
LYMPHOCYTE [1]: 92.67%
MEAN CORPUSCULAR HEMOGLOBIN [1]: 24.17 pg
MEAN CORPUSCULAR HEMOGLOBIN CONCENTRATION [1]: 38.7 G/DL
MONOCYTE [1]: 0.33%
NEUTROPHIL [1]: 6.67%
NUCLEATED RED BLOOD CELLS [1]: 0 /100WBC
PLATELET COUNT [1]: 980.67 x10E3/uL
ALANINE AMINOTRANSFERASE [1]: 54 u/L
ALBUMIN [1]: 4.1 G/DL
ALKALINE PHOSPHATASE [1]: 310 u/L
ASPARTATE AMINOTRANSFERASE [1]: 89.33 u/L
BLOOD UREA NITROGEN [1]: 14 mg/dL
CARBON DIOXIDE [1]: 31 mmol/L
CHOLESTEROL [1]: 71.33 mg/dL
CREATINE PHOSPHOKINASE [1]: 331 u/L
CREATININE [1]: 0.35 mg/dL
GLUCOSE [1]: 149.67 mg/dL
LACTATE DEHYDROGENASE [1]: 119.33 u/L
LIPASE [1]: 11.67 u/L
POTASSIUM [1]: 6.3 MEQ/L
SODIUM [1]: 145.23 MEQ/L
TOTAL BILIRUBIN [1]: 0.17 mg/dL
TOTAL PROTEIN [1]: 5.87 G/DL
URIC ACID [1]: 0.97 mg/dL
ABSOLUTE BASOPHIL [2]: 0 CELLS/uL
ABSOLUTE EOSINOPHIL [2]: 28.33 CELLS/uL
ABSOLUTE LYMPHOCYTE [2]: 6898 CELLS/uL
ABSOLUTE MONOCYTE [2]: 45.67 CELLS/uL
ABSOLUTE SEGMENTED NEUTROPHIL [2]: 428 CELLS/uL
BASOPHIL [2]: 0%
EOSINOPHIL [2]: 0.33%
ERYTHROCYTE COUNT [2]: 5.27 x10E6/uL
HEMATOCRIT [2]: 32.97%
HEMOGLOBIN [2]: 12.8 G/DL
LEUKOCYTE COUNT [2]: 7.4 x10E3/uL
LYMPHOCYTE [2]: 93%
MEAN CORPUSCULAR HEMOGLOBIN [2]: 24.37 pg
MEAN CORPUSCULAR HEMOGLOBIN CONCENTRATION [2]: 38.87 G/DL
MONOCYTE [2]: 0.67%
NEUTROPHIL [2]: 6%
NUCLEATED RED BLOOD CELLS [2]: 0 /100WBC
PLATELET COUNT [2]: 1125.67 x10E3/uL
ALANINE AMINOTRANSFERASE [2]: 47.33 u/L
ALBUMIN [2]: 4.07 G/DL
ALKALINE PHOSPHATASE [2]: 321 u/L
ASPARTATE AMINOTRANSFERASE [2]: 79.33 u/L
BLOOD UREA NITROGEN [2]: 12.67 mg/dL
CARBON DIOXIDE [2]: 28.33 mmol/L
CHOLESTEROL [2]: 67.33 mg/dL
CREATINE PHOSPHOKINASE [2]: 458 u/L
CREATININE [2]: 0.23 mg/dL
GLUCOSE [2]: 154 mg/dL
LACTATE DEHYDROGENASE [2]: 123 u/L
LIPASE [2]: 9.67 u/L
POTASSIUM [2]: 5.85 MEQ/L
SODIUM [2]: 142.43 MEQ/L
TOTAL BILIRUBIN [2]: 0.17 mg/dL
TOTAL PROTEIN [2]: 5.77 G/DL
URIC ACID [2]: 0.9 mg/dL
ABSOLUTE BASOPHIL [3]: 0 CELLS/uL
ABSOLUTE EOSINOPHIL [3]: 32 CELLS/uL
ABSOLUTE LYMPHOCYTE [3]: 9269.33 CELLS/uL
ABSOLUTE MONOCYTE [3]: 115 CELLS/uL
ABSOLUTE SEGMENTED NEUTROPHIL [3]: 383.67 CELLS/uL
BASOPHIL [3]: 0%
EOSINOPHIL [3]: 0.33%
ERYTHROCYTE COUNT [3]: 5.83 x10E6/uL
HEMATOCRIT [3]: 35.13%
HEMOGLOBIN [3]: 13.9 G/DL
LEUKOCYTE COUNT [3]: 9.8 x10E3/uL
LYMPHOCYTE [3]: 94.33%
MEAN CORPUSCULAR HEMOGLOBIN [3]: 23.83 pg
MEAN CORPUSCULAR HEMOGLOBIN CONCENTRATION [3]: 39.6 G/DL
MONOCYTE [3]: 1.33%
NEUTROPHIL [3]: 4%
NUCLEATED RED BLOOD CELLS [3]: 0.33 /100WBC
PLATELET COUNT [3]: 783 x10E3/uL
ALANINE AMINOTRANSFERASE [3]: 46.67 u/L
ALBUMIN [3]: 4.17 G/DL
ALKALINE PHOSPHATASE [3]: 320.33 u/L
ASPARTATE AMINOTRANSFERASE [3]: 74 u/L
BLOOD UREA NITROGEN [3]: 15.67 mg/dL
CARBON DIOXIDE [3]: 29.33 mmol/L
CHOLESTEROL [3]: 57.67 mg/dL
CREATINE PHOSPHOKINASE [3]: 253.33 u/L
CREATININE [3]: 0.44 mg/dL
GLUCOSE [3]: 155.67 mg/dL
LACTATE DEHYDROGENASE [3]: 135.67 u/L
LIPASE [3]: 12 u/L
POTASSIUM [3]: 5.65 MEQ/L
SODIUM [3]: 145.17 MEQ/L
TOTAL BILIRUBIN [3]: 0.17 mg/dL
TOTAL PROTEIN [3]: 5.83 G/DL
URIC ACID [3]: 0.83 mg/dL
